In US9113629B2, “4-amino-6-(4-substituted-phenyl)-picolinates and 6-amino-2-(4-substituted-phenyl)-pyrimidine-4-carboxylates and their use as herbicides” (DOW AGROSCIENCES LLC, priority 2013, dated 2015):
Where two headings read alike, the source gives them in different places.

Experiments:
Assay type in all cases: in vivo
[1] = tested on: VERPE: bird's-eye speedwell (veronica persica); assay: Post-emergent Test III, herbicidal activity in wheat and barley; details: for pest or weed control at 35 g/ha: 35 g ai/ha; for pest or weed control at 70 g/ha: 70 g ai/ha; for GR50 VERPE / GR80 VERPE: probit analysis
Outline: (§1)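 Plants at the second to third true-leaf stage, grown in a greenhouse at about 18/17 °C with a 14 h photoperiod, were sprayed post-emergence at 187 L/ha with the high rate and ½× to 1/16× serial dilutions in an acetone/DMSO/crop-oil/surfactant carrier. Injury was rated visually at 21 d on a 0–100% scale, and GR20–GR90 were derived by probit analysis.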

[2] = tested on: VIOSS: wild pansy (Viola tricolor), field violet (Viola arvensis); assay: as above; details: 21 days after application
Outline: as §1

[3] = tested on: LAMSS; assay: Pre-emergent Test III, preemergent activity in wheat and barley
Protocol: Pre-emergent Test III. Seeds of test species were planted into square plastic pots (10 cm wide) containing sandy loam soil. After planting, all pots were sub-irrigated 16 h prior to compound application. A weighed amount, determined by the highest rate to be tested, of each test compound was placed in a 25 mL glass vial and was dissolved in 4 mL of a 97:3 v/v mixture of acetone and DMSO to obtain concentrated stock solutions. […] The concentrated stock solutions obtained were diluted with 20 mL of an aqueous mixture containing water and 0.02% w/v (weight/volume) of Triton X-155 to obtain spray solutions containing the highest application rates. Additional application rates were obtained by serial dilution of 12 mL of the high rate solution into a solution containing 2 mL of 97:3 v/v mixture of acetone and DMSO and 10 mL of an aqueous mixture containing water and 0.02% w/v (weight/volume) of Triton X-155 to obtain 1⁄2×, 1⁄4×, 1⁄8× and 1/16× rates of the high rate. Compound requirements are based upon a 12 mL application volume at a rate of 187 liters per hectare (L/ha). Formulated compounds were applied to the soil surface with an overhead Mandel track sprayer equipped with […] nozzles calibrated to deliver 187 L/ha over an application area of 0.503 square meters. Control pots were sprayed in the same manner with the solvent blank. The treated pots and control pots were placed in a greenhouse as described above and watered through surface irrigation. After 21 d, the condition of the test pots as compared with that of the untreated pots was determined visually and scored on a scale of 0 to 100 percent where 0 corresponds to no herbicidal effect and 100 corresponds to plant death or lack of emergence from the soil. By applying the well-accepted probit analysis as described by J. Berkson in Journal of the American Statistical Society, 48, 565 (1953) and by D. Finney in “Probit Analysis” Cambridge University Press (1952), the above data can be used to calculate GR20, GR50, GR80 and GR90 values, which are defined as growth reduction factors that correspond to the effective dose of herbicide required to kill or control 20 percent, 50 percent, 80 percent or 90 percent, respectively, of a target plant.

[4] = tested on: BROTE: downy brome (Bromus tectorum); assay: Post-emergent Test III, herbicidal activity in wheat and barley; details: for pest or weed control at 35 g/ha: 35 g ai/ha; for pest or weed control at 70 g/ha: 70 g ai/ha; for GR50 BROTE / GR80 BROTE: probit analysis, 21 days after application; for GR50 BROTE: dose for growth reduction of 50 percent; for GR80 BROTE: dose for growth reduction of 80 percent
Outline: as §1

[5] = tested on: STEME: common chickweed (Stellaria media); assay: as above
Outline: as §1

[6] = Veronica persica, post-emergence, 504 h, 21 days after application, read-out: Visual Gorowth Reduction (%) 21 days After Application VERPE
[7] = Bromus tectorum, post-emergence, 504 h, read-out: Visual Growth Reduction (%) 21 Days After Application BROTE
[8] = Veronica persica, post-emergence, 504 h, read-out: Visual Growth Reduction (%) 21 Days After Application VERPE

COC(=O)c1nc(-c2ccc(Br)c(F)c2)c(F)c(N)c1Cl [Compound 49]
pest or weed control at 35 g/ha [1, 6]: 45 to 59% | pest or weed control at 70 g/ha [1, 6]: 60 to 74% | GR50 VERPE ([1]; dose for 50 percent growth reduction, 21 days after application): 37 g ai/ha | GR80 VERPE ([1]; dose for 80 percent growth reduction, 21 days after application): >140 g ai/ha | pest or weed control at 35 g/ha ([2]; Viola tricolor, post-emergence, 504 h, 35 g ai/ha, read-out: Visual Gorowth Reduction (%) 21 days After Application VIOSS): 95 to 100% | pest or weed control at 70 g/ha ([2]; Viola tricolor, post-emergence, 504 h, 70 g ai/ha, read-out: Visual Gorowth Reduction (%) 21 days After Application VIOSS): 95 to 100% | GR50 VIOSS ([2]; probit analysis, dose for 50 percent growth reduction): 5 g ai/ha | GR80 VIOSS ([2]; probit analysis, dose for 80 percent growth reduction): 8 g ai/ha | Visual Growth Reduction (%) 21 Days After Application, LAMSS ([3]; 35 g ai/ha): A (95-100) | Visual Growth Reduction (%) 21 Days After Application, LAMSS ([3]; 70 g ai/ha): A (95-100) | GR50 LAMSS ([3]; 21 days after application, dose to kill or control 50%, probit analysis): 1 g ai/ha | GR80 LAMSS ([3]; 21 days after application, dose to kill or control 80%, probit analysis): 3 g ai/ha

Nc1c(F)c(-c2ccc(C(F)(F)F)c(F)c2F)nc(C(=O)O)c1Cl [Compound 167]
pest or weed control at 35 g/ha [4, 7]: 30 to 44% | pest or weed control at 70 g/ha [4, 7]: 75 to 84% | GR50 BROTE [4]: 43 g ai/ha | GR80 BROTE [4]: 81 g ai/ha

COC(=O)c1nc(-c2ccc(Cl)c(F)c2)c(F)c(N)c1Cl [Compound 216]
pest or weed control at 35 g/ha [4, 7]: 30 to 44% | pest or weed control at 70 g/ha [4, 7]: 45 to 59% | pest or weed control at 140 g/ha ([4]; Bromus tectorum, post-emergence, 504 h, 140 g ai/ha, read-out: Visual Growth Reduction (%) 21 Days After Application BROTE): 45 to 59% | GR50 BROTE [4]: 136 g ai/ha | GR80 BROTE [4]: >140 g ai/ha | pest or weed control at 35 g/ha ([5]; Stellaria media, post-emergence, 504 h, 35 g ai/ha, read-out: Visual Growth Reduction (%) 21 Days After Application STEME): 30 to 44% | pest or weed control at 70 g/ha ([5]; Stellaria media, post-emergence, 504 h, 70 g ai/ha, read-out: Visual Growth Reduction (%) 21 Days After Application STEME): 30 to 44% | pest or weed control at 140 g/ha ([5]; Stellaria media, post-emergence, 504 h, 140 g ai/ha, read-out: Visual Growth Reduction (%) 21 Days After Application STEME): 75 to 84% | GR50 STEME ([5]; probit analysis, dose for growth reduction of 50 percent, 21 days after application): 52 g ai/ha | GR80 STEME ([5]; probit analysis, dose for growth reduction of 80 percent, 21 days after application): >140 g ai/ha | pest or weed control at 35 g/ha [1, 8]: 45 to 59% | pest or weed control at 70 g/ha [1, 8]: 60 to 74% | pest or weed control at 140 g/ha ([1]; Veronica persica, post-emergence, 504 h, 140 g ai/ha, read-out: Visual Growth Reduction (%) 21 Days After Application VERPE): 75 to 84% | GR50 VERPE ([1]; dose for growth reduction of 50 percent, 21 days after application): 32 g ai/ha | GR80 VERPE ([1]; dose for growth reduction of 80 percent, 21 days after application): >140 g ai/ha
